# Test results published in US20080113003A1, “Sinapic Acid Supplementation” (UNIVERSITY OF SASKATCHEWAN, priority 2004, published 2008).
# Marks after values point to notes of the source that are not given here.
# Legend:
# [1] = Example 3: feed consumption, weight gain and diet AME; assay type: in vivo, broiler chickens; settings: sinapic acid 0.025% in diet
# Procedure: Broiler chickens were fed a corn-soybean meal based diet either unsupplemented or supplemented with sinapic acid at a level of 0.025%, 0.05% or 0.1%. After the supplementation period, microbial analysis was conducted. This Example was designed to confirm the results of Example 2, to assess effects on microbial community, and to repeat the VFA measurement by increasing the chick numbers within the replication.
# Ninety-six ([…]) male broiler chicks (Peterson X Hubbard) were randomly assigned to four treatments, with six birds in each replication and four replications for each treatment. A corn-soybean based diet served as a control, while another three diets were supplemented with graded levels of sinapic acid (0.025, 0.05 and 0.10%). Bird management was as previously described in Example 1. Volatile fatty acid measurement was conducted as described in Example 2, except that digesta was pooled from six birds per replication.
# [2] = Example 1: apparent sinapic acid digestibility (HPLC of feed, excreta, digesta); assay type: in vivo, broiler chickens; settings: dietary sinapic acid 0.025-0.10%
# Procedure: (§1) Sample Analyses. Acid insoluble ash (AIA, Celite) was used as an indigestible marker for the determination of the apparent digestibility of metabolizable energy, protein (ileal and fecal) and SA. AIA was determined by using the procedure of Vogtmann et al, 1975 Br. Poult. Sci. 67:641-646. The gross energy was measured by a traditional bomb calorimeter, and crude protein was analyzed by a Leco FP-528™ protein analyzer (Model No. 601-500-100, Serial#3211, LECO Corporation, 3000 Lakeview Avenue, St. Joseph Mich. 49085-2396 USA). Based on the assay of nutrient and AIA in feed, excreta, and ileal content, the nutrient digestibility was determined.
# The analysis of sinapic acid in feed, excreta and digesta samples was conducted by HPLC using a reversed-phase column under the fluorescence detection method. The mobile phase was isocratic, based on 6% MeOH solution with 20 mmol K2HPO4 as basic buffer. For feed and excreta samples, the analysis was conducted at pH 9.5, however, for ileal and cecal samples, the pH was changed to 9 to obtain better background separation and chromatograms.
# [3] = test system: cecal microbial community; test: Example 3: microbial community assay, % G+C profile of cecal digesta; assay type: in vivo, broiler chickens; settings: dose dependent, sinapic acid 0.025-0.10% in diet
# [4] = test system: bacterial populations in the ileum and ceca; test: Example 2: volatile fatty acid content of ileal and cecal digesta (0.05-0.20% sinapic acid); assay type: in vivo, broiler chickens; settings: sinapic acid 0.05-0.20% in diet
# Procedure: Bird management and diet composition were as described in Example 1. Volatile Fatty Acid (VFA) Measurement. The status of bacterial populations in the ileum and ceca of experimental birds was assessed by examining VFA production. The birds were killed by lethal injection with T-61TM(Euthanasia solution) and the ileal and cecal digesta of three birds within each replication were collected in a well-sealed plastic centrifuge tube and then frozen at -20° C. Ileal digesta were collected from the terminal ileum (distal half excluding the last 2 cm anterior from the ceca). Samples within a replication were pooled and mixed well prior to VFA measurement. Analyses of VFA (acetic, propionic, isobutyric, butyric, isovaleric, and valeric acid) were conducted by Gas Chromatography (GC) (Varian Star 3400) using a StabilwaxTM-DA column (0.25 mm ID, 0.25 μm […] Corporation, 110 Benner Circle, Bellefonte Pa., 16823-8812 USA) and based on the procedure of Choct et al. (Br. Poult. […] A concentration of 2 mmol/L is acceptable for the internal standard in intestinal content samples. One ml of standard solution was added to 0.2 (cecal) or 0.5 (ileal) g of sample and vortexed until well-mixed. The mixture was then centrifuged at 28,000 g for 10 minutes and the supernatant pipetted into GC vials for analysis. Statistical Analyses. […]
# [5] = Example 1: performance of broiler chickens on dietary sinapic acid (gain, feed intake, gain/feed); assay type: in vivo; settings: 0-18 d of age
# Excerpt: Bird management. Broilers were housed in battery brooders.
# [6] = Example 1: apparent nutrient digestibility (AME, ileal and fecal protein); assay type: in vivo, broiler chickens; settings: for AME (apparent metabolizable energy): excreta 16-18 d
# Procedure: as §1
smiles,measurement,setting,value
"COc1cc(C=CC(=O)O)cc(OC)c1O [Sinapic Acid, 4-hydroxy-3,5dimethyoxy-cinnamic acid]",feed consumption,[1],increased
same,increase in diet AME,[1],2%
same,increase in weight gain,[1],6%
same,sinapic acid in the cecal digesta,[2],no sinapic acid found
same,amounts of cecal microbes in the range % G+C 40-54,[3],decreased
same,relative abundance of cecal bacteria in the range % G+C 20-30,[3],increased
same,relative abundance of cecal bacteria in the range % G+C 55-69,[3],increased
same,reduction of acetic acid level in cecal contents compared with control,[4],15-20%
same,reduction of total VFA level in cecal contents compared with control,[4],15-20%
same,Feed intake/bird,[5]; sinapic acid 0.025% in diet,781^a g
same,Gain,[5]; sinapic acid 0.025% in diet,561 g
same,Gain/feed,[5]; sinapic acid 0.025% in diet,0.72
same,Feed intake/bird,[5]; sinapic acid 0.05% in diet,738^ab g
same,Gain,[5]; sinapic acid 0.05% in diet,545 g
same,Gain/feed,[5]; sinapic acid 0.05% in diet,0.74
same,Feed intake/bird,[5]; sinapic acid 0.10% in diet,689^b g
same,Gain,[5]; sinapic acid 0.10% in diet,491 g
same,Gain/feed,[5]; sinapic acid 0.10% in diet,0.71
same,Fecal protein digest.,[6]; sinapic acid 0.025% in diet,68.5%
same,Ileal protein digest.,[6]; sinapic acid 0.025% in diet,81.5%
same,AME (apparent metabolizable energy),[6]; sinapic acid 0.025% in diet,3412 kcal/kg
same,Fecal protein digest.,[6]; sinapic acid 0.05% in diet,66.3%
same,Ileal protein digest.,[6]; sinapic acid 0.05% in diet,78.8%
same,AME (apparent metabolizable energy),[6]; sinapic acid 0.05% in diet,3418 kcal/kg
same,Fecal protein digest.,[6]; sinapic acid 0.10% in diet,66.5%
same,Ileal protein digest.,[6]; sinapic acid 0.10% in diet,80%
same,AME (apparent metabolizable energy),[6]; sinapic acid 0.10% in diet,3442 kcal/kg
